Molecules are shown by their SMILES. In brackets after ≈: the same amount, converted by molar mass. Several values for one entry are separate records, joined by “and”; a condition that tells them apart may be missing. Equal values may be shown once.

The subject of one series is Leishmania donovani. Briefly: DNDI: Inhibition of formation of Leishmania donovani (strain MHOM/ET/67/L82) axenic amastigotes, in vitro. The series is classed as functional, organism-based.
Series [1] can be described thus: DNDI: Solubility in phosphate buffered saline at pH7.4 measured by optical density (turbidimetry) at room temperature (OD-RT). The following applies: pH 7.4. It is filed as physicochemical.
A short description of series [2]: DNDI: in vitro intrinsic clearance in mouse liver microsomes at a concentration of 10uM. It is filed as ADME, Microsome. The note with it: read-out: CLint in vitro. (In general: Microsomes from liver hold many membrane-bound enzymes, among them those of drug oxidation.)
The test system of another series is Trypanosoma cruzi. Put plainly: DNDI: Inhibition of Chagas Disease parasite Trypanosoma cruzi (Tulahuen LacZ, Clone C4), in vitro. The series is classed as functional, organism-based.
Series [3] is described as follows: DNDI: Lipophilicity measured in Chromatographic hydrophobicity index (CHI) assay, pH 7.4. The note with it: buffer. It is filed as physicochemical.
Series [4] is described as follows: DNDI: in vitro intrinsic clearance in human liver microsomes at a concentration of 10uM. It is filed as ADME, Microsome.
The nature of series [5]: DNDI: Cytotoxicity against L929 mouse fibroblasts, 72 hour. It is filed as toxicity, cell-based. The note with it: mouse, L929 mouse fibroblasts.
Series [6] relates to Trypanosoma brucei rhodesiense. Briefly: DNDI: Inhibition of Human African Trypanosomiasis (HAT), STIB 900, in vitro. It is filed as functional, organism-based.
The nature of series [7]: DNDI: Cytotoxicity against L-6 rat myoblasts from skeletal muscle cells. It is filed as toxicity, cell-based, L6. The following applies: L-6 rat skeletal muscle myoblasts.
A further series concerns Plasmodium falciparum. Put plainly: DNDI: Inhibition of the malaria parasite Plasmodium falciparum, in vitro. The note with it: K1. It is filed as functional, organism-based.
Series [8] deals with Trypanosoma brucei. Put plainly: DNDI: Inhibition of Human African Trypanosomiasis, SBRI 427, in vitro. The series is classed as functional, organism-based.
Series [9] can be described thus: DNDI: half life in mouse liver microsomes at a concentration of 10uM. It is filed as ADME, Microsome.
Series [10] in a line: DNDI: half life in human liver microsomes at a concentration of 10uM. The series is classed as ADME, Microsome.
Series [11] in a line: DNDI: Cytotoxicity against L929 mouse fibroblasts, CYTO-SP, 24 hour. It is filed as toxicity, cell-based. The following applies: mouse, L929 mouse fibroblasts.
The test system of series [12] is Trypanosoma brucei. Briefly: DNDI: Inhibition of Human African Trypanosomiasis, Cross 22, in vitro. The series is classed as functional, organism-based.
Series [13] has as its system Trypanosoma brucei. Put plainly: DNDI: Mean survival time in days (MSD) of mice after intraperitoneal injection of Human African Trypanosomiasis (HAT), EATRO 110, in vivo at 20 mg/kg/day for 4 days. The series is classed as functional, Mus musculus.
Another series is described as follows: in vitro. The note with it: mouse, liver microsomes, t (1 / 2).
The conditions of series [14]: mouse, microsomes, 1 µM.
Description: DNDI: in vitro intrinsic clearance in mouse liver microsomes at a concentration of 1uM
Series [15] in a line: DNDI: Solubility in phosphate buffered saline at pH7.4 measured by nephelometry at room temperature (NEPH-RT). The series is classed as physicochemical. The following applies: pH 7.4.
The mark [16] stands for this setting: Trypanosoma brucei, SBRI 427, read-out: IC50.

Description for in vitro: DNDI: half life in mouse liver microsomes at a concentration of 1uM

As usually defined, the IC50 is the point on the concentration scale where inhibition reaches its midpoint. What is called kinetic solubility is solubility judged after dilution from a stock solution rather than from solid. As a reminder, the chromatographic logD is lipophilicity estimated from chromatographic retention. The low end stands for a more hydrophilic compound, the high end for a more lipophilic compound. In general, half-life refers to how long it takes for the measured level to halve. As for `CCCCCC(C)NCc1coc(-c2ccc(OC)cc2)n1` (centres undefined), the IC50 in the series on Leishmania donovani amounted to 12.4 µg/mL (≈ 41.1 µM); with Trypanosoma cruzi it was 2.9 µg/mL (≈ 9.59 µM); in [6], 1.06 µg/mL (≈ 3.51 µM); in series [7], 16 µg/mL (≈ 53 µM); with Plasmodium falciparum, 1.77 µg/mL (≈ 5.85 µM); with Trypanosoma brucei [8] (setting [16]), 2.13 µg/mL (≈ 7.04 µM). The same molecule displayed a solubility (kinetic) in [1] of 6.3 µM (≈ 1.91 µg/mL). Further, the microsomal CLint at 10 µM in series [2] amounted to 15 µL/min/mg. This molecule displayed a chromatographic logD in series [3] of 4.16. For the same molecule, the CLint in vitro in series [4] amounted to 44 µL/min/mg. Also, the 50% inhibitory concentration (IC50) at 72 h in series [5] is above 10 µg/mL. Further, the half-life at 10 µM in series [9] was found to be 190 min; in series [10], 66 min. In series [11], this molecule came in with an IC50 at 24 h of 33 µg/mL (≈ 109 µM).
As to `CCCCCC(C)NCc1coc(-c2ccc(Cl)cc2)n1` (centres undefined), the IC50 with Leishmania donovani is 18.7 µg/mL (≈ 60.8 µM); in the series on Trypanosoma cruzi, 11.3 µg/mL (≈ 36.8 µM); in [6], 0.478 µg/mL (≈ 1.56 µM); in series [7], 10.9 µg/mL (≈ 35.4 µM); in the series on Plasmodium falciparum, 2.6 µg/mL (≈ 8.47 µM); in the series with Trypanosoma brucei [8] it was 0.95 µg/mL and 1.02 µg/mL. The IC50 with Trypanosoma brucei [8] (setting [16]) came out at 1.7 µg/mL (≈ 5.54 µM); in the series with Trypanosoma brucei [12], 1.54 µg/mL (≈ 5.02 µM). In series [1], the kinetic solubility stood at 6.3 µM (≈ 1.93 µg/mL). Also, the microsomal CLint at 10 µM in series [2] worked out at 17 µL/min/mg. Also, the chromatographic logD in [3] stood at 5.02. The molecule also showed a 50% inhibitory concentration (IC50) at 72 h in series [5] of 4.88 µg/mL (≈ 15.9 µM). Besides, in series [9], the half-life at 10 µM is 173 min. The IC50 at 24 h in series [11] turned out to be 17 µg/mL (≈ 55.4 µM).
With `CCCCCC(C)NCc1coc(-c2ccc(OC(C)CC)cc2)n1` (centres undefined), the MSD with Trypanosoma brucei [13] stood at 4 days. Moreover, in [3], the chromatographic logD is above 5.2. Further, the midpoint of inhibition in series [5], the IC50 at 72 h, lay at 1.55 µg/mL (≈ 4.5 µM). For the same molecule, the half-life at 1 µM in the series “in vitro” was found to be 257 min. The CLint in vitro in series [14] was 3 µL/min/mg. Also, the IC50 in the series on Trypanosoma brucei [8] (setting [16]) is 0.68 µg/mL (≈ 1.97 µM). In [15], this molecule yielded a kinetic solubility of 3 µM (≈ 1.03 µg/mL).
In the series on Trypanosoma brucei [13], `Cc1ccc(CNC(CCc2ccccc2)c2nc(-c3ccccc3)c(N3CCCCC3)o2)cc1` (centres undefined) registered an MSD of 4 days. This molecule gave an IC50 at 72 h in [5] above 10 µg/mL. Moreover, in the series with Trypanosoma brucei [8] (setting [16]), the IC50 was above 5 µg/mL.
Turning to `CCCCCC(C)NCc1coc(-c2ccc(OC3CCCC3)cc2)n1` (centres undefined), the MSD in the series on Trypanosoma brucei [13] worked out at 4 days. For the same molecule, the chromatographic logD in series [3] is above 5.2. This molecule came in with an IC50 at 72 h in series [5] of 1.38 µg/mL (≈ 3.87 µM). The same molecule came in with a half-life at 1 µM in the series “in vitro” of 67 min. In series [14], the CLint in vitro came out at 13 µL/min/mg. In addition, the IC50 in the series with Trypanosoma brucei [8] (setting [16]) was 0.73 µg/mL (≈ 2.05 µM). Moreover, the kinetic solubility in series [15] came to 6 µM (≈ 2.14 µg/mL).
Molecule `CCCCCC(C)NCc1coc(-c2ccc(OCC(C)C)cc2)n1` (centres undefined) registered an MSD with Trypanosoma brucei [13] of 4 days. Also, in series [3], the chromatographic logD was above 5.2. In series [5], this molecule displayed an IC50 at 72 h of 1.48 µg/mL (≈ 4.3 µM). Further, the half-life at 1 µM in the series “in vitro” turned out to be 94 min. This molecule yielded a CLint in vitro in series [14] of 9 µL/min/mg. Besides, in the series on Trypanosoma brucei [8] (setting [16]), the IC50 is 0.5 µg/mL (≈ 1.45 µM). In series [15], this molecule came in with a solubility (kinetic) of 3 µM (≈ 1.03 µg/mL).
Consider `O/N=C(\Nc1cccc(F)c1)c1cccnc1Oc1c(F)cccc1F`, for which, in the series with Trypanosoma brucei [13], the MSD amounted to 4 days. This molecule showed an IC50 at 72 h in [5] above 10 µg/mL. Further, in the series on Trypanosoma brucei [8] (setting [16]), the IC50 is above 5 µg/mL.
`CCCCCC(C)NCc1coc(-c2cccc(OCC)c2)n1` (centres undefined) registered a solubility (kinetic) in series [1] of 6.3 µM (≈ 1.99 µg/mL). The microsomal CLint at 10 µM in [2] worked out at 97 µL/min/mg. This molecule also registered a chromatographic logD in series [3] of 4.83. The molecule further had an IC50 at 72 h in series [5] of 6.82 µg/mL (≈ 21.6 µM). In addition, the IC50 in the series with Trypanosoma brucei [8] (setting [16]) is 2.13 µg/mL (≈ 6.73 µM). This molecule also gave a half-life at 10 µM in series [9] of 30 min. Besides, inhibition in [11] was half-maximal at 17 µg/mL (≈ 53.7 µM) (IC50 at 24 h).
As for `Cc1ccc(CNC(CC(C)C)c2nc(Cc3ccccc3)c(N3CCOCC3)o2)cc1` (centres undefined), the MSD with Trypanosoma brucei [13] worked out at 4 days. The molecule further came in with an IC50 at 72 h in series [5] above 10 µg/mL. The molecule also yielded a half-life at 1 µM in “in vitro” of 5 min. Moreover, in series [14], the CLint in vitro stood at 155 µL/min/mg. Further, the IC50 in the series on Trypanosoma brucei [8] (setting [16]) was determined as 1.64 µg/mL (≈ 3.78 µM).
`CCCCCC(C)NCc1ccc(-c2ccccc2)cc1` (centres undefined) returned a solubility (kinetic) in series [1] of 12.5 µM (≈ 3.52 µg/mL). Also, the microsomal CLint at 10 µM in series [2] worked out at 126 µL/min/mg. The molecule also displayed a chromatographic logD in [3] of 4.2. Also, in series [4], the CLint in vitro worked out at 25 µL/min/mg. Besides, the IC50 at 72 h in [5] was below 3.13 µg/mL. In addition, the IC50 in the series on Trypanosoma brucei [8] (setting [16]) was found to be 0.66 µg/mL (≈ 2.35 µM). Further, the half-life at 10 µM in [9] came out at 23 min; in [10] it was 114 min. Also, the concentration for half-maximal inhibition (IC50) at 24 h in series [11] is above 50 µg/mL.
On to `CCc1cccc(N/C(=N/O)c2ccc(OC)cc2)c1`, for which the 50% inhibitory concentration (IC50) stood at 26.6 µg/mL (≈ 98.3 µM) with Leishmania donovani; 17 µg/mL (≈ 62.9 µM) in the series with Trypanosoma cruzi; 34.3 µg/mL (≈ 127 µM) in series [6]; 44.7 µg/mL (≈ 165 µM) in [7]; 3.87 µg/mL (≈ 14.3 µM) in the series with Plasmodium falciparum; 0.76 µg/mL (≈ 2.81 µM) in the series on Trypanosoma brucei [8] (setting [16]). The MSD in the series on Trypanosoma brucei [13] is 4 days. The molecule also registered a chromatographic logD in series [3] of 3.76. The same molecule displayed an IC50 at 72 h in [5] above 10 µg/mL. The same molecule registered a half-life at 1 µM in “in vitro” of 2 min. In addition, the CLint in vitro in series [14] was determined as 470 µL/min/mg. Also, the solubility (kinetic) in [15] is above 200 µM. Also, the IC50 at 24 h in [11] is above 50 µg/mL.
